Here are results for twelve molecules from ChEMBL document CHEMBL1201862, “PubChem BioAssay data set” (2004).

Test in all cases: NCI-60 cell line screen, 48 h
Assay [1] concerns NCI-H460.
Assay [2] relates to HCC 2998.
Assay [3] concerns UO-31.
Assay [4] has as its system NCI-H522.
Assay [5] relates to OVCAR-8.
The test system of assay [6] is HL-60.
The subject of assay [7] is IGROV-1.
The test system of assay [8] is HCT-15.
For assay [9], the system named is SK-MEL-5.
The test system of assay [10] is NCI/ADR-RES.
For assay [11], the system named is HOP-92.
For assay [12], the system named is NCI-H23.
Assay [13] concerns SK-MEL-28.
For assay [14], the system named is RPMI-8226.
Assay [15] concerns T47D.
Assay [16] relates to A498.
Assay [17] relates to K562.
For assay [18], the system named is PC-3.
In assay [19] the test system is SR.

The structures appear in SMILES notation.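 Values below derive from 48-hour exposures of cells grown in 96-well plates, with endpoints linearly interpolated between the two concentrations bracketing the appropriate inhibition level. GI50: concentration for 50% inhibition of growth.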 Active and inactive are the calls of the source. No stated cut-off is given here; in the data, active = GI50 up to about 1.1 µM and inactive = higher.

Turning to `COc1cc2c(cc1OCCCOS(C)(=O)=O)N=C[C@@H]1CCCN1C2=O`, the GI50 in assay [1], in assay [2], in assay [3], in assay [4], in [5] and in [6] was > 100 µM (inactive) each time. Besides, the GI50 was > 100 µM (inactive) in assay [7]; > 100 µM in assay [8]; > 100 µM (inactive) in [9]; > 100 µM (inactive) in assay [10]; > 100 µM (inactive) in assay [11]; > 100 µM (inactive) in assay [12]. The GI50 in [13], in assay [14], in assay [15] and in assay [16] was > 100 µM (inactive) each time.
Consider `CC(C)(CO)N1CCN(C(S)=Nc2ccccc2)CC1`, for which the GI50 in assay [17] was 64.3 µM (inactive); in assay [1], > 100 µM (inactive); in assay [3] it was > 100 µM (inactive); in [4] it was > 100 µM (inactive); in assay [5], > 100 µM (inactive); in assay [7], > 100 µM (inactive). Besides, the GI50 was > 100 µM (inactive) in [18]; > 100 µM in assay [8]; > 100 µM (inactive) in assay [9]; > 100 µM (inactive) in [10]; > 100 µM (inactive) in assay [11]; > 100 µM (inactive) in [12]. Moreover, the GI50 in assay [13], in assay [14], in [15] and in assay [16] was > 100 µM (inactive) throughout.
Consider `N#Cc1c(O)c2ccccc2[nH]c1=O`, for which the GI50 in [17], in assay [2], in assay [3], in assay [4], in assay [5] and in assay [6] was > 100 µM (inactive) each time. In addition, the GI50 in assay [7] was > 100 µM (inactive); in [18], > 100 µM (inactive); in [8], > 100 µM; in assay [9], > 100 µM (inactive); in assay [10], > 100 µM (inactive); in assay [11], > 100 µM (inactive). For the same molecule, the GI50 in assay [12], in assay [13], in assay [14], in assay [15] and in [16] was > 100 µM (inactive) throughout.
Consider `Cc1ccc(/N=N/C(=O)NNc2ccc(C)c([N+](=O)[O-])c2)cc1[N+](=O)[O-]`, for which the GI50 in [17] is 11.9 µM (inactive); in assay [1], 28.6 µM (inactive); in assay [19], 18.9 µM (inactive); in assay [2], 17.4 µM (inactive); in assay [3], 15.2 µM (inactive); in assay [4] it was 20.6 µM (inactive). Further, the GI50 in assay [5] is 26.2 µM (inactive); in assay [6] it was 17.9 µM (inactive); in assay [7] it was 17.7 µM (inactive); in assay [18], 18.7 µM (inactive); in assay [8], 30.1 µM; in assay [9], 22.9 µM (inactive). Also, the GI50 is 30.2 µM (inactive) in assay [12]; 26.1 µM (inactive) in assay [13]; 19.9 µM (inactive) in assay [14]; 4.45 µM (inactive) in assay [15]; 14.7 µM (inactive) in assay [16].
Turning to `COC(=O)C1(C(=O)OC)CC(=O)c2c(OC(=O)c3cccc(OC)c3C#N)ccc(OC(=O)c3cccc(OC)c3C#N)c2C1`, the GI50 in assay [17] was > 100 µM (inactive); in assay [1], > 100 µM (inactive); in [19], 26.9 µM (inactive); in assay [2], > 100 µM (inactive); in [3], 59.2 µM (inactive); in [4], > 100 µM (inactive). Further, the GI50 in [5] was > 100 µM (inactive); in assay [6], > 100 µM (inactive); in assay [7], > 100 µM (inactive); in [18] it was > 100 µM (inactive); in assay [8] it was > 100 µM; in assay [9], > 100 µM (inactive). The GI50 in assay [10] is > 100 µM (inactive); in assay [11] it was 83.8 µM (inactive); in [12], > 100 µM (inactive); in assay [13] it was > 100 µM (inactive); in assay [14], 39.1 µM (inactive); in assay [16] it was 31.3 µM (inactive).
For `NC(=S)NS(=O)(=O)c1ccc(Cl)cc1`, the GI50 in assay [17], in assay [1], in [2], in assay [4], in assay [5] and in assay [6] was > 100 µM (inactive) in each case. The GI50 was > 100 µM (inactive) in assay [7]; > 100 µM (inactive) in assay [18]; > 100 µM in assay [8]; > 100 µM (inactive) in assay [9]; > 100 µM (inactive) in assay [10]; > 100 µM (inactive) in [12]. Moreover, the GI50 in assay [13], in assay [14] and in [15] was > 100 µM (inactive) each time.
Regarding `C=C/C(C)=C\CC1[C@](C)(O)CC[C@H]2C(C)(C)C(=O)CC[C@]12C` (stereo not given in full), the GI50 in [17] is 57.7 µM (inactive); in assay [1], 50.6 µM (inactive); in [19], 24.6 µM (inactive); in assay [3] it was 23.9 µM (inactive); in assay [4] it was 62.7 µM (inactive); in [5], > 100 µM (inactive). Also, the GI50 is 12.1 µM (inactive) in [6]; > 100 µM (inactive) in assay [7]; 34.6 µM (inactive) in assay [18]; 51.9 µM in [8]; 44.4 µM (inactive) in assay [9]; 60 µM (inactive) in [10]. Moreover, the GI50 was > 100 µM (inactive) in assay [11]; 40.6 µM (inactive) in [12]; > 100 µM (inactive) in [13]; 29 µM (inactive) in assay [14]; > 100 µM (inactive) in assay [16].
On to `CC(=O)NCC1OC2COC(c3ccccc3)OC2C2N=C(c3ccccc3)OC12` (stereo not given), for which the GI50 was 32.6 µM (inactive) in assay [17]; 60.7 µM (inactive) in assay [1]; 66.5 µM (inactive) in [2]; 39.9 µM (inactive) in assay [3]; 57 µM (inactive) in assay [5]; 26.7 µM (inactive) in [6]. In addition, the GI50 in assay [18] was 24.9 µM (inactive); in [8], 43.4 µM; in [9] it was 39.2 µM (inactive); in assay [10], 42.5 µM (inactive); in assay [11], 61.1 µM (inactive); in assay [12], > 100 µM (inactive). Further, the GI50 in assay [13] was 59.6 µM (inactive); in assay [14], 29.4 µM (inactive); in assay [15], 19.1 µM (inactive); in assay [16], 37.4 µM (inactive).
`CCOC(=O)/C(C(=S)Nc1ccccc1)=C(/N)N1CCCC1`: the GI50 is 37 µM (inactive) in assay [17]; 62.2 µM (inactive) in assay [1]; > 100 µM (inactive) in assay [19]; > 100 µM (inactive) in assay [2]; > 100 µM (inactive) in assay [3]; > 100 µM (inactive) in assay [4]. In addition, the GI50 is > 100 µM (inactive) in assay [5]; 49.9 µM (inactive) in [6]; > 100 µM (inactive) in assay [7]; 38.9 µM (inactive) in assay [18]; > 100 µM in [8]; > 100 µM (inactive) in assay [9]. In addition, the GI50 is > 100 µM (inactive) in assay [10]; 2.1 µM (inactive) in [11]; > 100 µM (inactive) in assay [12]; > 100 µM (inactive) in [13]; > 100 µM (inactive) in assay [14]; > 100 µM (inactive) in [16].
On to `CCCCC1C=Cn2c(=O)oc3c(OC(C)C)c(OC(C)C)c(O)c1c32` (stereo not given), for which the GI50 was 15.4 µM (inactive) in assay [1]; 13.6 µM (inactive) in [3]; 11.6 µM (inactive) in assay [4]; 14.9 µM (inactive) in assay [5]; 4.56 µM (inactive) in assay [6]; 38.2 µM (inactive) in [18]. For the same molecule, the GI50 was 14.6 µM in assay [8]; 14.7 µM (inactive) in [9]; 14.3 µM (inactive) in assay [11]; 12.2 µM (inactive) in assay [12]; 13.6 µM (inactive) in assay [13]; 4.44 µM (inactive) in assay [15]. Besides, the GI50 in assay [16] was 17.1 µM (inactive).
For `CC(C)(C)C1CCC2c3c([nH]c4ccccc34)C3C(=O)N(c4cc(Cl)ccc4Cl)C(=O)C3C2C1` (stereo not given), the GI50 in assay [17] is > 100 µM (inactive); in assay [1], > 100 µM (inactive); in assay [19], > 10 µM (inactive); in assay [2], > 100 µM (inactive); in assay [3], > 100 µM (inactive); in assay [5], 52.6 µM (inactive). Also, the GI50 in assay [6] was > 10 µM (inactive); in [7], > 100 µM (inactive); in assay [18], > 100 µM (inactive); in assay [8], > 100 µM; in assay [9], > 100 µM (inactive); in assay [10] it was > 100 µM (inactive). Besides, the GI50 in assay [11] is 65.8 µM (inactive); in [12], > 100 µM (inactive); in [14], > 100 µM (inactive); in [16] it was > 100 µM (inactive).
For `CCOC(=O)C(C)c1nc2ccc(C(F)(F)F)cc2[nH]c1=O` (stereo not given), the GI50 in assay [17] was 48.5 µM (inactive); in [1], 84.9 µM (inactive); in assay [2] it was 65.2 µM (inactive); in assay [3] it was 36.2 µM (inactive); in assay [5] it was 94.6 µM (inactive); in [6], 44.8 µM (inactive). For the same molecule, the GI50 in assay [18] was 36.9 µM (inactive); in [8] it was 95.3 µM; in assay [9], 52.7 µM (inactive); in assay [10] it was 37.4 µM (inactive); in [11], 43.9 µM (inactive); in assay [12], 49.9 µM (inactive). In addition, the GI50 is > 100 µM (inactive) in assay [13], 28.9 µM (inactive) in [14], 23.8 µM (inactive) in assay [15] and 34 µM (inactive) in assay [16].
